Data: ChEMBL document CHEMBL4425158, “Synthesis, structure-activity relationships and biological evaluation of 4,5,6,7-tetrahydropyrazolopyrazines as metabotropic glutamate receptor 5 negative allosteric modulators” (Bioorg Med Chem Lett, 2016)
pIC50: −log10 of the molar value. Values after ≈ are worked out from the molar mass of the structure shown. Active and inactive are the calls of the source. No cut-off for these calls is given here.

Key:
[1] = target: Metabotropic glutamate receptor 5 (Homo sapiens, UniProt P41594); test: Negative allosteric modulation of human recombinant mGluR5 expressed in HEK293 cells assessed as L-glutamate-induced intracellular calcium mobilization incubated for 20 mins before L-glutamate addition; format: functional, cell-based
[2] = Cmax in rat plasma at 10 mg/kg, po after 15 mins to 24 hrs; format: ADME, organism-based; parameters: dose 10 mg/kg, route oral
[3] = Ratio of drug level in brain to plasma in ICR mouse at 30 mg/kg, po after 1 hr by LC/MS/MS analysis; format: ADME, organism-based; settings: read-out: BPR
[4] = target: T1, Aryl hydrocarbon receptor (Homo sapiens, UniProt P35869); test: Induction of human AhR assessed as CYP450 activation; format: ADME
T1 sequence (P35869 whole entry): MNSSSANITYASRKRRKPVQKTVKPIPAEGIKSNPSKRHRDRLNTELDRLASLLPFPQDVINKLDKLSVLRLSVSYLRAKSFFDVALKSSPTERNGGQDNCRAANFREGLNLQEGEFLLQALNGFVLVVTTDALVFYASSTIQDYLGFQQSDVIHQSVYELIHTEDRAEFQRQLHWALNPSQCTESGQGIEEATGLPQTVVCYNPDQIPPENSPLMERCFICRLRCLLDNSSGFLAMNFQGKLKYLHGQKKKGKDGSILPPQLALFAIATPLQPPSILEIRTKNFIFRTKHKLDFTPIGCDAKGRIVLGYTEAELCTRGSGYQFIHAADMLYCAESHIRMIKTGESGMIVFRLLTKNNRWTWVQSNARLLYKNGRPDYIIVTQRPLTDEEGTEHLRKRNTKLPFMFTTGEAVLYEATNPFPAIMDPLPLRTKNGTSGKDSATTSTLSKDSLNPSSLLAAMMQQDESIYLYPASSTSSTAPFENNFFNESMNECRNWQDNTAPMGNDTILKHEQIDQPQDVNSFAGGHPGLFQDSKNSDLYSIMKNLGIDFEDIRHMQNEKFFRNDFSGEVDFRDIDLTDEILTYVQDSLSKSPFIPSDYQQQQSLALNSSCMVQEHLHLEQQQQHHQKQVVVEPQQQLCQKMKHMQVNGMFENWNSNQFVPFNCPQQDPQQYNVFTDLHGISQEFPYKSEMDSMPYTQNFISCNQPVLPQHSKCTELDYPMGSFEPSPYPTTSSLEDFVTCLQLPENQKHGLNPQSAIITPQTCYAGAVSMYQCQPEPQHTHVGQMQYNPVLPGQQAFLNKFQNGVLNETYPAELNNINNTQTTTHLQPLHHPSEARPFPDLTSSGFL

Cytochrome P450 2D6 = Cytochrome P450 2D6 (Homo sapiens, UniProt P10635); test: Inhibition of CYP2D6 in human liver microsomes using bufuralol as substrate after 10 mins in presence of NADPH by LC/MS/MS analysis; format: ADME
[5] = Plasma concentration in ICR mouse at 30 mg/kg, po after 1 hr by LC/MS/MS analysis; format: ADME, organism-based
[6] = target: Voltage-gated inwardly rectifying potassium channel KCNH2 (Homo sapiens, UniProt Q12809); test: Inhibition of human ERG
[7] = AUC(0 to infinity) in rat plasma at 10 mg/kg, po after 15 mins to 24 hrs; format: ADME, organism-based; parameters: dose 10 mg/kg, route oral, time infinity
[8] = Protein binding in ICR mouse brain at 30 mg/kg, po after 1 hr by LC/MS/MS analysis; format: ADME, organism-based; settings: read-out: PB (converted)
Cytochrome P450 1A2 = target: T2, Cytochrome P450 1A2 (Homo sapiens, UniProt P05177); test: Inhibition of CYP1A2 in human liver microsomes using phenacetin as substrate after 10 mins in presence of NADPH by LC/MS/MS analysis; format: ADME
T2 sequence (P05177 whole entry): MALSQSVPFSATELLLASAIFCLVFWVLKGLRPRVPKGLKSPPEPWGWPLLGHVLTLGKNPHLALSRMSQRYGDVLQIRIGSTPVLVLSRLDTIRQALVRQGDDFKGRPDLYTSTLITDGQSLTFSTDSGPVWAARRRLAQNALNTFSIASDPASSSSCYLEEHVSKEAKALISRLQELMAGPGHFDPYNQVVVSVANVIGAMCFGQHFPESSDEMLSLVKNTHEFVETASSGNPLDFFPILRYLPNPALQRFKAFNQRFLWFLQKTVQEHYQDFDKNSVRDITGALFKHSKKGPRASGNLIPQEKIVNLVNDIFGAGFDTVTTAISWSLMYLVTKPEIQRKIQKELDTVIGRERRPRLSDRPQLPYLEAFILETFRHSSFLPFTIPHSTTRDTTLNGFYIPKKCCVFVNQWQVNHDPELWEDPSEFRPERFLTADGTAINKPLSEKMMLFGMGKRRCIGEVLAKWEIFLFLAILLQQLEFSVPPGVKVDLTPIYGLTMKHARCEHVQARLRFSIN

Cytochrome P450 2C19 = Cytochrome P450 2C19 (Homo sapiens, UniProt P33261); test: Inhibition of CYP2C19 in human liver microsomes using (S)-mephenytoin as substrate after 10 mins in presence of NADPH by LC/MS/MS analysis; format: ADME
Mus musculus = test: Antidepressant activity in CD1(ICR) mouse assessed as decrease in immobility time at 30 mg/kg, po after 1 hr by tail suspension test; format: functional, organism-based
P-gp (ABCB1) = P-gp (ABCB1) (Homo sapiens, UniProt P08183); test: Substrate activity at P-gp (unknown origin) assessed as efflux ratio; format: ADME; settings: not told
[9] = Drug uptake in ICR mouse brain at 30 mg/kg, po after 1 hr by LC/MS/MS analysis; format: ADME, organism-based; settings: read-out: Drug uptake
[10] = Clearance in rat plasma at 1 mg/kg, iv after 5 mins to 24 hrs; format: ADME, organism-based
Cytochrome P450 2A6 = target: T3, Cytochrome P450 2A6 (Homo sapiens, UniProt P11509); test: Inhibition of CYP2A6 in human liver microsomes using coumarin as substrate after 10 mins in presence of NADPH by LC/MS/MS analysis; format: ADME
T3 sequence (P11509 whole entry): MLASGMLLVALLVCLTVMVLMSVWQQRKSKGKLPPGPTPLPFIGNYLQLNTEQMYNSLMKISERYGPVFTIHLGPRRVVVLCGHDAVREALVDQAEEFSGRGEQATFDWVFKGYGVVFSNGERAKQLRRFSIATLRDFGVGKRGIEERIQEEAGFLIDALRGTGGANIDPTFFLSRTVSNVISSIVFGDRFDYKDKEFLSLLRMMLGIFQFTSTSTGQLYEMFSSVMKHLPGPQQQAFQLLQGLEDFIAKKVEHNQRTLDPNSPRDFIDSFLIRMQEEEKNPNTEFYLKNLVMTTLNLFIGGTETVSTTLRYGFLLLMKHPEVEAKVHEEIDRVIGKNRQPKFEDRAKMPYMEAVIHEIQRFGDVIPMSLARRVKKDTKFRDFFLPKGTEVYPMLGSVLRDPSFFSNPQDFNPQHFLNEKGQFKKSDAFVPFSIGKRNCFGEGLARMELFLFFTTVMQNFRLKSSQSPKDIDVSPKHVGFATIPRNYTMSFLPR

[11] = Oral bioavailability in rat plasma at 10 mg/kg, after 15 mins to 24 hrs; format: ADME, organism-based
[12] = Aqueous solubility of the compound at pH 7.4; format: physicochemical
Cytochrome P450 2C9 = Cytochrome P450 2C9 (Homo sapiens, UniProt P11712); test: Inhibition of CYP2C9 in human liver microsomes using diclofenac as substrate after 10 mins in presence of NADPH by LC/MS/MS analysis; format: ADME
[13] = Half life in rat plasma at 1 mg/kg, iv after 5 mins to 24 hrs; format: ADME, organism-based
[14] = Volume of distribution in steady state in rat plasma at 1 mg/kg, iv after 5 mins to 24 hrs; format: ADME, organism-based; settings: read-out: Vdss
[15] = Aqueous solubility of the compound at pH 1.2; format: physicochemical
Cytochrome P450 3A4 = Cytochrome P450 3A4 (Homo sapiens, UniProt P08684); test: Inhibition of CYP3A4 in human liver microsomes using midazolam as substrate after 10 mins in presence of NADPH by LC/MS/MS analysis; format: ADME
[16] = Unbound drug concentration in ICR mouse brain at 30 mg/kg, po after 1 hr by LC/MS/MS analysis; format: ADME, organism-based; settings: in vivo
[17] = target: T4, Nuclear receptor subfamily 1 group I member 2 (Homo sapiens, UniProt O75469); test: Induction of human PXR assessed as CYP450 activation; format: ADME
T4 sequence (O75469 whole entry): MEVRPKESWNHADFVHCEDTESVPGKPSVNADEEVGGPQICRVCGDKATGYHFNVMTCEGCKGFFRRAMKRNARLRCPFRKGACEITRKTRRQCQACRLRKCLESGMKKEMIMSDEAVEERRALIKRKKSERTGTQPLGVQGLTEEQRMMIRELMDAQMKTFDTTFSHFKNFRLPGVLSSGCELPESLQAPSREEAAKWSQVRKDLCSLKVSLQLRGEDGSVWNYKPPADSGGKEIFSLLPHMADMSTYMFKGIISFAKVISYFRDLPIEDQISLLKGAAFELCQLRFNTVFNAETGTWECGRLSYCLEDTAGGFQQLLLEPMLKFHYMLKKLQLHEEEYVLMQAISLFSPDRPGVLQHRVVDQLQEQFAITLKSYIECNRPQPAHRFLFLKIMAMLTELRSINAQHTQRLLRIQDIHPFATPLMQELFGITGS

Cytochrome P450 2C8 = target: T5, Cytochrome P450 2C8 (Homo sapiens, UniProt P10632); test: Inhibition of CYP2C8 in human liver microsomes using amodiaquin as substrate after 10 mins in presence of NADPH by LC/MS/MS analysis; format: ADME
T5 sequence (P10632 whole entry): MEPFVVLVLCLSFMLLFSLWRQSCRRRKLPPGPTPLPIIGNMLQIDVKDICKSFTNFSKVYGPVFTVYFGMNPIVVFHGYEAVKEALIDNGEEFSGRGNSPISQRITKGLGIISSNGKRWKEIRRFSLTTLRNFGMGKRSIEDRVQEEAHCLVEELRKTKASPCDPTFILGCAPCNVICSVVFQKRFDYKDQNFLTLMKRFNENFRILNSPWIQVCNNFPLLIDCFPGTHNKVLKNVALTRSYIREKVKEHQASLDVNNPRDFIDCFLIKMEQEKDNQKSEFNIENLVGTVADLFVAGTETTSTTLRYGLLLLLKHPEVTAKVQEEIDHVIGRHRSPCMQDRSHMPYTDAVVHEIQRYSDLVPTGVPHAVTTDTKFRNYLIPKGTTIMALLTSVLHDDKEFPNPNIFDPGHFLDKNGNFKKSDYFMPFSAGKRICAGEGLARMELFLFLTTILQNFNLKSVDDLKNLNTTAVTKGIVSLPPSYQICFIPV

[18] = AUC(0 to infinity) in rat plasma at 1 mg/kg, iv after 5 mins to 24 hrs; format: ADME, organism-based; parameters: dose 1 mg/kg, route intravenous, time infinity
[19] = Metabolic stability in rat liver microsomes assessed as compound remaining at 1 uM after 30 mins in presence of NADPH by LC/MS/MS analysis; format: ADME, Microsome; settings: read-out: Stability
[20] = Permeability of the compound at pH 7.4 by PAMPA; format: ADME; settings: read-out: permeability
[21] = Metabolic stability in human liver microsomes assessed as compound remaining at 1 uM after 30 mins in presence of NADPH by LC/MS/MS analysis; format: ADME, Microsome; settings: read-out: Stability

Sequence of Metabotropic glutamate receptor 5 (P41594 whole entry): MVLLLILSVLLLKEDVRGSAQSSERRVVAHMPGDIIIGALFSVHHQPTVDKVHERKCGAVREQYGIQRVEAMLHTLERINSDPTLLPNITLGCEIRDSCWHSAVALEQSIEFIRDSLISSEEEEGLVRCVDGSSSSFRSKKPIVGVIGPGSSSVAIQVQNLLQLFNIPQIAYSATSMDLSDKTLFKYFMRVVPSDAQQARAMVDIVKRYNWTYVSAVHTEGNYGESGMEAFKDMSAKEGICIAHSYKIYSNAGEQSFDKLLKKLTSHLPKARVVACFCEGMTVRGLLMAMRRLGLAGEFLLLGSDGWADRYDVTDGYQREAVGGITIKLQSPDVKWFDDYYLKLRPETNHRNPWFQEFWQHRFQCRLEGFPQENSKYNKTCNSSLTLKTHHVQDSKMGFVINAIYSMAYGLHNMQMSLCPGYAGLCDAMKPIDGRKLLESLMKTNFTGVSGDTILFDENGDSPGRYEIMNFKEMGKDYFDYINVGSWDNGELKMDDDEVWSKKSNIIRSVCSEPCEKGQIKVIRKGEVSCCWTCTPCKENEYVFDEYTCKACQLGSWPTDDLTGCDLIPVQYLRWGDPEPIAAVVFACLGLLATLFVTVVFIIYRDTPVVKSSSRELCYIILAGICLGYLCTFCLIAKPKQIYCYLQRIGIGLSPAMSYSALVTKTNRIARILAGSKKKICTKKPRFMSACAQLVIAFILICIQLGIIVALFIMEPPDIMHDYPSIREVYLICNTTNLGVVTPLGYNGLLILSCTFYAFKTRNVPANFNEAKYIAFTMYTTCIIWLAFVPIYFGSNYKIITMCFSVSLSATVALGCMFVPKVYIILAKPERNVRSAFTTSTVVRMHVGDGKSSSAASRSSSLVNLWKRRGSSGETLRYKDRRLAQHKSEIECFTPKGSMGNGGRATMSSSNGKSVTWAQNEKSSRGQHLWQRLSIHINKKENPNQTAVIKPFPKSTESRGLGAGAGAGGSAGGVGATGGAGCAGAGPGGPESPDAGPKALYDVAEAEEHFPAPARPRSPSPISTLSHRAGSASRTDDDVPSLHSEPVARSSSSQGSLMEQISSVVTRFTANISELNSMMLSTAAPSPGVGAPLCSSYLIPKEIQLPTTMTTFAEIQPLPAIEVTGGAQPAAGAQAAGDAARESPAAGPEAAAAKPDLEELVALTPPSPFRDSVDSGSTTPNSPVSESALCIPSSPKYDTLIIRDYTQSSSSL
Sequence of Cytochrome P450 2D6 (P10635 whole entry): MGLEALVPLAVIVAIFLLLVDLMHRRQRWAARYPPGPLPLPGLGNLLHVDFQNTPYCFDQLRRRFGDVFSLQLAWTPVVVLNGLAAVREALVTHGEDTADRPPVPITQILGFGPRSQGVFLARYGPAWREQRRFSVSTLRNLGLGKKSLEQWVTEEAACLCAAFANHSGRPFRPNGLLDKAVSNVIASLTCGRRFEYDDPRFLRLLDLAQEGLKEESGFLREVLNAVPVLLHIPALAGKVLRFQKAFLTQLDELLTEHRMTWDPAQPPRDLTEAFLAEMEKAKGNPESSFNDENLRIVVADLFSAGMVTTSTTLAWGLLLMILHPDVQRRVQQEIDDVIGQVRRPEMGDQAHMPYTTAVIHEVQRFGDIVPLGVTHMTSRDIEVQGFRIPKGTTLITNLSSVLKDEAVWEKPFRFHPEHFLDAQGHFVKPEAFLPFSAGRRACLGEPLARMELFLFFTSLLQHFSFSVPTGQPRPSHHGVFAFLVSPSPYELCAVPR
Sequence of Cytochrome P450 3A4 (P08684 whole entry): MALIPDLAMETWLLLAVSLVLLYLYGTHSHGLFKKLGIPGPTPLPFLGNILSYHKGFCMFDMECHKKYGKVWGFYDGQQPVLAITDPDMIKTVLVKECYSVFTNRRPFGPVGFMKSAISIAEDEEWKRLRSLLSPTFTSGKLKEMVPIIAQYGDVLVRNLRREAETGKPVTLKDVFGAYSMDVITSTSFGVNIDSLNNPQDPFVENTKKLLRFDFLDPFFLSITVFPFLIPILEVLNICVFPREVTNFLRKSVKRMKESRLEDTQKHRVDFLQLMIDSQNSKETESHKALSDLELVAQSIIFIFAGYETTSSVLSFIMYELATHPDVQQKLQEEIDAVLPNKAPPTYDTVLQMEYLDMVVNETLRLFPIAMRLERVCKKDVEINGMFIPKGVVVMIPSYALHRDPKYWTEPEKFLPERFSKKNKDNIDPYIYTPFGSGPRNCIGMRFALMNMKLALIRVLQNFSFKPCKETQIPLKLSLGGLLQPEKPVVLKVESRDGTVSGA
Sequence of Voltage-gated inwardly rectifying potassium channel KCNH2 (Q12809 whole entry): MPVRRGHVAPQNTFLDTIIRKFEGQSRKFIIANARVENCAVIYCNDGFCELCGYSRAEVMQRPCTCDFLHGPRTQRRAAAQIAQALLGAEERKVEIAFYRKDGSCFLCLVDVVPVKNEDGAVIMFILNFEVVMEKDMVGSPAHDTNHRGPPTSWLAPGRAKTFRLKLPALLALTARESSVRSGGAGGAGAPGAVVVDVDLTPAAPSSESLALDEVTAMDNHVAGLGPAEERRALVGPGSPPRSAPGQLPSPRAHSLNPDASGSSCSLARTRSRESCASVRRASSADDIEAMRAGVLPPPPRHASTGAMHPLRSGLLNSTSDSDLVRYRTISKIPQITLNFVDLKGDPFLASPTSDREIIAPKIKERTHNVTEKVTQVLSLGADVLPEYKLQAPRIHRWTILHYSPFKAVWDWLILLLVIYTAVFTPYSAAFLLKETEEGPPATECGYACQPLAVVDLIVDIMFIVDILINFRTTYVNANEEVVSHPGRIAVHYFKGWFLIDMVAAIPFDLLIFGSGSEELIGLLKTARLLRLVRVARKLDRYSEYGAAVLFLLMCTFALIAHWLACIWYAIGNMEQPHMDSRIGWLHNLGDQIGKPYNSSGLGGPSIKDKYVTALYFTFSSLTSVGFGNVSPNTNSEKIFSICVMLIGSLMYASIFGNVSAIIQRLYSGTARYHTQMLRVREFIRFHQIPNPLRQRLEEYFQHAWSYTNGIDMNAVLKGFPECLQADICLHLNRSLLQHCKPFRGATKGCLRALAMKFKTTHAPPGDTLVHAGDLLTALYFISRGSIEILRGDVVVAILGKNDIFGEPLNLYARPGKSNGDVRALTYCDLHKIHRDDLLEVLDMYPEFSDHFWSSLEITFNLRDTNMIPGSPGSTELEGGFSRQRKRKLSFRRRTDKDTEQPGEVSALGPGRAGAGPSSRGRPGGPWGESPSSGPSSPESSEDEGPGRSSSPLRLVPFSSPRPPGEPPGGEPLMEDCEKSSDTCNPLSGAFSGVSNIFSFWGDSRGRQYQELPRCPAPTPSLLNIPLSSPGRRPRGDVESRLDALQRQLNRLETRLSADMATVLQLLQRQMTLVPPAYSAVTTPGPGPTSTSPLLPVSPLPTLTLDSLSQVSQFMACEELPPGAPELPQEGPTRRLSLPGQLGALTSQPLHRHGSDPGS
Sequence of Cytochrome P450 2C9 (P11712 whole entry): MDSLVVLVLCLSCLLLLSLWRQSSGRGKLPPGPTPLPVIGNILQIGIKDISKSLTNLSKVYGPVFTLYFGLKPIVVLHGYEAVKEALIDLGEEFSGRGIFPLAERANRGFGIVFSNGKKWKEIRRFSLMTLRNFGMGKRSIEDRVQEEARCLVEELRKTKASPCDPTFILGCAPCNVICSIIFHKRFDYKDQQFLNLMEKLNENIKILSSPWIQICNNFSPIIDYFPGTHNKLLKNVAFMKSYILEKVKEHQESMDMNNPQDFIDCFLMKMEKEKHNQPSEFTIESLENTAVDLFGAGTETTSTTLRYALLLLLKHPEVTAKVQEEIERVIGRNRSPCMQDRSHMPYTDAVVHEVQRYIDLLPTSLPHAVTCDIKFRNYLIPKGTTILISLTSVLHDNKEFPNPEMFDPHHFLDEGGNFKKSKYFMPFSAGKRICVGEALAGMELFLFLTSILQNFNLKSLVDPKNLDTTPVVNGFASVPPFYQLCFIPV
Sequence of Cytochrome P450 2C19 (P33261 whole entry): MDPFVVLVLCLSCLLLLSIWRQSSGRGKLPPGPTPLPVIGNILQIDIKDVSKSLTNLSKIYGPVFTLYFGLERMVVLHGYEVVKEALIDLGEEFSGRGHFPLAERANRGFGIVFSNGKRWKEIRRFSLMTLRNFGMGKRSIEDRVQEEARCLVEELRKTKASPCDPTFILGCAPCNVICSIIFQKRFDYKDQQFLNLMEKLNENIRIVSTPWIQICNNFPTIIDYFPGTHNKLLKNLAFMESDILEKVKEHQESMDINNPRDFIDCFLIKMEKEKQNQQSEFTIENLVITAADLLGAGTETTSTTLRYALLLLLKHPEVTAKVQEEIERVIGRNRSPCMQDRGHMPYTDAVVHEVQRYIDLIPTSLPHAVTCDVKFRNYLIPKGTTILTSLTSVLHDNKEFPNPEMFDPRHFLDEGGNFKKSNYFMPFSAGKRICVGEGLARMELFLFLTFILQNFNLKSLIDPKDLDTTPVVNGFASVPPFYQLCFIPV

Compound O=C(c1ccccc1)N1CCn2nc(-c3ccc(F)cn3)cc2C1 has a pIC50 [1] of 6.79.
For Cc1ccnc(-c2cc3n(n2)CCN(C(=O)c2ccccc2)C3)c1, the pIC50 [1] was 6.35.
For Cc1cccnc1-c1cc2n(n1)CCN(C(=O)c1ccccc1)C2, the pIC50 [1] was < 5.00.
With O=C(c1ccccc1Cl)N1CCn2nc(-c3ccccn3)cc2C1 the pIC50 [1] was 5.61.
For O=C(c1cccc(Cl)c1)N1CCn2nc(-c3ccc(F)cn3)cc2C1, the pIC50 [1] was 6.82.
With O=C(c1cc(F)cc(Cl)c1)N1CCn2nc(-c3ccc(F)cn3)cc2C1 the Cmax [2] was 2930 ng/mL, the Kp at 1 h [3] was 1.38 and the Activity [4] was “Not Active”. The pIC50 (Cytochrome P450 2D6) was < 4.40, the concentration at 1 h [5] was 21.4 µM and the pIC50 [6] was 4.82. For the same compound, the AUC(0-inf) [7] was 68700 ng·h/mL, the fraction unbound at 1 h [8] was 0.05 and the pIC50 (Cytochrome P450 1A2) was < 4.40. For the same compound, the pIC50 (Cytochrome P450 2C19) was < 4.40, the Activity (Mus musculus) was “Active” and the efflux ratio (P-gp (ABCB1)) was 1.2. The concentration at 1 h [9] was 29.5 µM, the clearance [10] was 2.3 mL/min/kg and the pIC50 (Cytochrome P450 2A6) was < 4.40. The bioavailability [11] was 95%, the solubility [12] was 7 µg/mL (≈ 18.7 µM) and the pIC50 (Cytochrome P450 2C9) was < 4.40. The half-life [13] was 9.2 h, the pIC50 [1] was 7.12 and the Vd [14] was 1.5 L/kg. For the same compound, the solubility [15] was 79 µg/mL (≈ 211 µM), the pIC50 (Cytochrome P450 3A4) was < 4.40 and the “Drug uptake(free)” value [16] was 1.38 µM. The Activity [17] was “Not Active”, the pIC50 (Cytochrome P450 2C8) was < 4.40 and the AUC(0-inf) [18] was 7220 ng·h/mL. For the same compound, the remaining at 0.5 h, 1 µM [19] was > 97%, the Papp [20] was 37 ×10⁻⁶ cm/s and the remaining at 0.5 h, 1 µM [21] was > 97%.
